The results in this text go back to patent US4670469A, “Hydroxamic acid and pharmaceutical preparations containing the same” (VEB Arzneimittelwerk Dresden, priority 1983, dated 1987).

Assay [1] deals with T1, lipoxygenase from rabbit reticulocytes (Oryctolagus cuniculus, UniProt P12530).
T1 construct: The lipoxygenase from rabbit reticulocytes is obtained in electrophoretically and immunologically pure form; from tissue; host or cells: rabbit reticulocytes
T1 sequence (P12530 1-663): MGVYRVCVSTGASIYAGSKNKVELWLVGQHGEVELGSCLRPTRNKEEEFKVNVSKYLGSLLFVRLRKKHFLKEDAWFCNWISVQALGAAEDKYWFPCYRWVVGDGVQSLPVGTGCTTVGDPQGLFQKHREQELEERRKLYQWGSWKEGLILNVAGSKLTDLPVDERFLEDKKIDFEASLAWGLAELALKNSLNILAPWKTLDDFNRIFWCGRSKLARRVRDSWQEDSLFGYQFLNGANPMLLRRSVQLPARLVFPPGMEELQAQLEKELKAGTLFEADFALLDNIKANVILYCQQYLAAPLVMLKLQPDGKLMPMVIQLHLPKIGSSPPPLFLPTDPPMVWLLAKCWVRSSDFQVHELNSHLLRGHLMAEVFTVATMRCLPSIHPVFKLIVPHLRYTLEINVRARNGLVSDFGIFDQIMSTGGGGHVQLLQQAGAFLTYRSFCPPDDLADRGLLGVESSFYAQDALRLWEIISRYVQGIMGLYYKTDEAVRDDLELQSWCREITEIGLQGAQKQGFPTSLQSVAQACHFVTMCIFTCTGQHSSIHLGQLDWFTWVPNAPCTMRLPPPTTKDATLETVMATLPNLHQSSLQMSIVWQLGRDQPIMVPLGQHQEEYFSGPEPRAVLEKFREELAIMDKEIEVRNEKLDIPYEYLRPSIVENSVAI
The assay can be described thus: Inhibition of the activity of lipoxygenase from rabbit reticulocytes (oxygen consumption, Clark electrode). It is filed as biochemical. Particulars: 25° C., pH 7.4, 0.53 mM linoleic acid, 15 min pre-incubation. As to the method:
The lipoxygenase from rabbit reticulocytes was obtained in electrophoretically and immunologically pure form according to a technique known from the literature (S. M. Rapoport et al. Methods in Enzymology 71, 430 (1981)). The determination of lipoxygenase activity follows at 25° C. through the polarographic measurement of the oxygen consumption by means of Clark Electrode in a standardized system.
Through variation of the substance concentrations, the titration curves of the inhibition and therefrom the inhibition concentrations (I-value) of the compounds can be determined.
The testing of compounds for antiasthmatic, antiallergenic, inflammation-inhibiting and antithrombotic activity on the basis on the inhibition of the lipoxygenase reaction of the arachidonic acid cascade follows in a molecular/pharmacological test system. […] The lipoxygenase from rabbit reticulocytes is obtained in electrophoretically and immunologically pure form according to the techniques described in the literature (supra). The determination of the lipoxygenase activity follows at 25° C. through the polorographic measurement of oxygen consumption by means of a Clark-electrode in the following system: 0.1M potassiumphosphate, pH 7.4, with 0.2 percent sodium cholate and 0.53 mM linoleic acid. The enzyme concentration in the measurement preparation came to 25 nM. The compounds to be tested are dissolved in methylglycol (freshly distilled in a vacuum) and pre-incubated for 15 minutes at the measuring temperature in the absence of sodium cholate and linoleic acid. […] The enzyme reaction is started by the addition of sodium cholate and linoleic acid.

The target in assay [2] is T2, lipoxygenase from soybeans (Glycine max, UniProt P08170).
T2 construct: host or cells: soybeans
T2 sequence (P08170 1-839): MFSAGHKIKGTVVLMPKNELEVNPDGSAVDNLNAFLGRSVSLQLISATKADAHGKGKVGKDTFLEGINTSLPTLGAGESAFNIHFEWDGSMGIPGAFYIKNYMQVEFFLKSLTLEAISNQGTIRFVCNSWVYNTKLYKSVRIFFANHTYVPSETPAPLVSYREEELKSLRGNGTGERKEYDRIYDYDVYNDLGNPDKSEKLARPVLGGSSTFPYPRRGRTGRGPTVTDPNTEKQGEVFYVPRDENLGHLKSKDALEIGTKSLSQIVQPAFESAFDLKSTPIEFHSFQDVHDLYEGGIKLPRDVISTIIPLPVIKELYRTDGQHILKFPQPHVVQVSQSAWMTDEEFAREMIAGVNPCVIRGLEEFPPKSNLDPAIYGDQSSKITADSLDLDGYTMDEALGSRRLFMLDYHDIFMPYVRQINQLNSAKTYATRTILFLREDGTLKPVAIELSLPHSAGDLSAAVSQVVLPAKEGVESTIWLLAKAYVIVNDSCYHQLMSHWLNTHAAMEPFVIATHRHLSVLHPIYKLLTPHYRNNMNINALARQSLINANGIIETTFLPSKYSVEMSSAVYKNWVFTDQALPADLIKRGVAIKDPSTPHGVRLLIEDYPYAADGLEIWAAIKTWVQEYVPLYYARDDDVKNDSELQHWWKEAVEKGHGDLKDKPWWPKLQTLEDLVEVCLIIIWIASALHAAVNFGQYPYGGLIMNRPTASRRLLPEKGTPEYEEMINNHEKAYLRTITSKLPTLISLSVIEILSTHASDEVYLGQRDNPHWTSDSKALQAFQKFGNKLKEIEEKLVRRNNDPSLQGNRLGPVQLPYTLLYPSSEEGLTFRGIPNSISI
Nature of the assay: Inhibition of lipoxygenase from soybeans. In kind it is biochemical. Particulars: 0.4 mM; read-out: inhibition of soybean lipoxygenase. As to the method:
(§1) The inhibition of thrombocyte aggregation is likewise ascribed to the inhibition of lipoxygenase in the cells. It has thus been shown that the arachidonate-lipoxygenase activity of a microsome-free lysate of human thrombocyte concentrates is inhibited to the extent of 100% by means of 0.25 mM salicylhydroxamic acid. Moreover, it has been shown that also a series of further lipoxygenases are inhibited by means of the here described hydroxamic acids. The lipoxygenase from soybeans reacts the most insensitive, i.e. it is inhibited by means of 1 mM salicylhydroxamic acid at pH 7.4 to an extent of 60% and by means of 0.4 mM 2-hydroxy-1-napthylhydroxamic acid to an extent of 54%. In contrast, for the lipoxygenase from peas which come closer in their characteristics to human lipoxygenase, the following I50 -values are provided: salicyl hydroxamic acid, 5 μM, 2-hydroxy-1-napthylhydroxamic acid, 2 μM, 2(2'-napthoxy)-acethydroxamic acid, 2 μM. Moreover it has been shown that the formation lipoxygenase products of arachidonic acid in in vitro cultivated aorta endothelial cells of calves is hindered through 0.1 mM 2-hydroxy-1-napthylhydroxamic acids.

In assay [3] the test system is aorta endothelial cells of calves. The assay can be described thus: Formation of lipoxygenase products of arachidonic acid in cultivated aorta endothelial cells. Particulars: 0.1 mM. It is filed as cell-based. The procedure:
as §1

The subject of the next assay is thrombocyte aggregation. The assay can be described thus: Arachidonic acid-induced thrombocyte aggregation in thrombocyte-rich plasma. In kind it is cell-based, humans. Particulars: Homo sapiens; 0.8 mM arachidonic acid; concentration giving total restraint of aggregation. An excerpt:
Since with the new medicines the restraints of lipoxygenase has been identified as a molecular type of attack, also their influence on the thrombocyte-aggregation has been tested. The essential role of the lipoxygenase pathway for irreversibility of the thrombocyte aggregation is now known. (C. E. Dutilh et al. Prostaglandins and Medicine 6, 111 (1981)). The key role is attributed to the irreversibility of the thrombocyte aggregation in the pathogenesis of thrombotic illnesses. […] In the experiments, the thrombocyte aggregation was triggered either by means of arachidonic acid or by means of platelet activation factor (PAF-Acether).
The testing of the compounds for antithrombotic and thrombolytic activity follows in authentic cell systems of humans in vitro. Thrombocyte-rich plasma from the blood of healthy donors is obtained by centrifugation at 1,000×g. The measurement of the thrombocyte aggregation follows by means of an aggregometer based upon diffuse light scattering or light absorption of the produced cell aggregate. The thrombocyte-rich plasma is pre-incubated at 37° C. for 3 minutes with the active substance or substances; thereafter the thrombocyte aggregation is triggered through the addition of either 0.8 mM arachidonic acid or 1 μM platelet activation factor (PAF-acether). The preparations are then stirred with a velocity of 800 rpm. Indeed according to the employed active substance concentration there occurs either a strong delay or a complete inhibition of the thrombocyte aggregation.

For the next assay, the target named is lipoxygenase from peas. The assay can be described thus: Inhibition of lipoxygenase from peas. In kind it is biochemical. Particulars: read-out: I50. The procedure:
as §1

`O=C(NO)c1c(O)ccc2ccccc12` [2-hydroxy-1-naphthylhydroxanic acid, 2-hydroxy-1-naphthylhydroxamic acid]: the IC50 was 1600 nM in assay [1] (read-out: I50) and 2000 nM at lipoxygenase from peas. Moreover, the IC84 in assay [1] (read-out: I84) was 5.2 µM. In addition, the inhibition at 400 µM in assay [2] was 54%. Also, the “formation of lipoxygenase products of arachidonic acid” value in assay [3] is recorded as “hindered”. In the assay with thrombocyte aggregation, this compound came in with an IC100 of 7 µM.
